# Oligonucleotides are written 5' to 3', each unit as a sugar letter and its base; * is a phosphorothioate linkage, no mark a phosphodiester; rarer units and linkages stand in square brackets, end groups in braces. Plain capitals give the bases only. d = 2'-deoxy (DNA); r = 2'-OH (RNA)
# Biological target: NOG
# Assay: reporter assay of Huesken 2005
# Conditions: siRNA
# Also: test concentration or dose not given here.
row,Substance,normalised inhibition (eCFP-eYFP dual reporter)
1,sense rUrCrArUrCrGrArArCrArCrCrCrArGrArCrCrCdTdT / antisense rGrGrGrUrCrUrGrGrGrUrGrUrUrCrGrArUrGrAdGdG,67.8%
2,sense rGrUrGrGrCrUrGrUrGrGrUrCrGrCrArGrArCrAdTdT / antisense rUrGrUrCrUrGrCrGrArCrCrArCrArGrCrCrArCdAdT,83.3%
3,sense rArGrCrArArGrArArGrCrUrGrCrGrGrArGrGrAdTdT / antisense rUrCrCrUrCrCrGrCrArGrCrUrUrCrUrUrGrCrUdTdA,97.7%
4,sense rUrGrGrUrCrGrCrArGrArCrArUrUrCrUrGrCrCdTdT / antisense rGrGrCrArGrArArUrGrUrCrUrGrCrGrArCrCrAdCdA,40.5%
5,sense rGrGrCrArArGrArArGrCrArGrCrGrCrCrUrArAdTdT / antisense rUrUrArGrGrCrGrCrUrGrCrUrUrCrUrUrGrCrCdCdT,91.3%
6,sense rArUrUrCrUrGrCrCrCrCrGrUrGrCrUrGrUrArCdTdT / antisense rGrUrArCrArGrCrArCrGrGrGrGrCrArGrArArUdGdT,51%
7,sense rUrGrGrUrGrGrArCrCrUrCrArUrCrGrArArCrAdTdT / antisense rUrGrUrUrCrGrArUrGrArGrGrUrCrCrArCrCrAdGdG,96.4%
8,sense rGrArArCrGrArCrCrUrGrGrGrCrArGrCrCrGrCdTdT / antisense rGrCrGrGrCrUrGrCrCrCrArGrGrUrCrGrUrUrCdCdA,59.1%
9,sense rGrArCrCrCrArGrGrCrUrUrCrArUrGrGrCrCrAdTdT / antisense rUrGrGrCrCrArUrGrArArGrCrCrUrGrGrGrUrCdGdT,82.6%
10,sense rUrCrUrGrCrCrCrCrGrUrGrCrUrGrUrArCrGrCdTdT / antisense rGrCrGrUrArCrArGrCrArCrGrGrGrGrCrArGrAdAdT,61%
11,sense rGrArUrCrArArArGrGrGrCrUrArGrArGrUrUrCdTdT / antisense rGrArArCrUrCrUrArGrCrCrCrUrUrUrGrArUrCdTdC,78.3%
12,sense rGrArArCrGrArGrArCrGrCrUrGrCrUrGrCrGrCdTdT / antisense rGrCrGrCrArGrCrArGrCrGrUrCrUrCrGrUrUrCdAdG,74.1%
13,sense rCrUrGrGrCrGrGrArGrCrUrGrGrArCrCrArGrCdTdT / antisense rGrCrUrGrGrUrCrCrArGrCrUrCrCrGrCrCrArGdGdT,58.7%
14,sense rArGrUrArArGrCrGrCrUrCrGrUrGrCrUrCrCrGdTdT / antisense rCrGrGrArGrCrArCrGrArGrCrGrCrUrUrArCrUdGdA,51%
15,sense rArCrArUrUrCrUrGrCrCrCrCrGrUrGrCrUrGrUdTdT / antisense rArCrArGrCrArCrGrGrGrGrCrArGrArArUrGrUdCdT,60%
16,sense rGrCrUrUrCrArGrUrArArGrCrGrCrUrCrGrUrGdTdT / antisense rCrArCrGrArGrCrGrCrUrUrArCrUrGrArArGrCdAdG,84.7%
17,sense rUrArCrGrCrGrUrGrGrArArCrGrArCrCrUrGrGdTdT / antisense rCrCrArGrGrUrCrGrUrUrCrCrArCrGrCrGrUrAdCdA,51.8%
18,sense rUrCrCrGrCrCrCrGrGrCrArCrCrCrArGrCrGrAdTdT / antisense rUrCrGrCrUrGrGrGrUrGrCrCrGrGrGrCrGrGrAdTdG,72%
19,sense rCrGrCrArGrArCrArUrUrCrUrGrCrCrCrCrGrUdTdT / antisense rArCrGrGrGrGrCrArGrArArUrGrUrCrUrGrCrGdAdC,53%

row,Substance,normalised inhibition (eCFP-eYFP dual reporter)
1,sense rCrUrGrArArCrGrArGrArCrGrCrUrGrCrUrGrCdTdT / antisense rGrCrArGrCrArGrCrGrUrCrUrCrGrUrUrCrArGdAdT,46.9%
2,sense rCrCrUrCrArUrCrGrArArCrArCrCrCrArGrArCdTdT / antisense rGrUrCrUrGrGrGrUrGrUrUrCrGrArUrGrArGrGdTdC,79.3%
3,sense rCrArGrArCrCrCrUrArUrCrUrUrUrGrArCrCrCdTdT / antisense rGrGrGrUrCrArArArGrArUrArGrGrGrUrCrUrGdGdG,88.8%
4,sense rCrArGrCrUrGrCrUrUrCrArGrUrArArGrCrGrCdTdT / antisense rGrCrGrCrUrUrArCrUrGrArArGrCrArGrCrUrGdCdC,56.5%
5,sense rArUrGrGrUrGrUrGrCrArArGrCrCrGrUrCrCrAdTdT / antisense rUrGrGrArCrGrGrCrUrUrGrCrArCrArCrCrArUdGdC,86.2%
6,sense rGrCrUrGrCrGrCrUrCrGrCrUrGrCrUrCrGrGrGdTdT / antisense rCrCrCrGrArGrCrArGrCrGrArGrCrGrCrArGrCdAdG,67.1%
7,sense rGrUrCrCrArArGrUrCrCrGrUrGrCrArCrCrUrCdTdT / antisense rGrArGrGrUrGrCrArCrGrGrArCrUrUrGrGrArCdGdG,55.7%
8,sense rArGrArGrUrUrCrUrCrCrGrArGrGrGrCrUrUrGdTdT / antisense rCrArArGrCrCrCrUrCrGrGrArGrArArCrUrCrUdAdG,55.1%
9,sense rGrArCrGrCrUrGrCrUrGrCrGrCrUrCrGrCrUrGdTdT / antisense rCrArGrCrGrArGrCrGrCrArGrCrArGrCrGrUrCdTdC,70.9%
10,sense rUrGrUrGrGrUrCrGrCrArGrArCrArUrUrCrUrGdTdT / antisense rCrArGrArArUrGrUrCrUrGrCrGrArCrCrArCrAdGdC,57.5%
11,sense rGrCrUrGrCrUrGrCrGrCrUrCrGrCrUrGrCrUrCdTdT / antisense rGrArGrCrArGrCrGrArGrCrGrCrArGrCrArGrCdGdT,78.8%
12,sense rGrGrCrUrUrCrArUrGrGrCrCrArCrCrUrCrGrCdTdT / antisense rGrCrGrArGrGrUrGrGrCrCrArUrGrArArGrCrCdTdG,64.6%
13,sense rGrArUrGrUrGrGrCrUrGrUrGrGrUrCrGrCrArGdTdT / antisense rCrUrGrCrGrArCrCrArCrArGrCrCrArCrArUrCdTdG,81.7%
14,sense rGrCrCrGrGrCrGrGrCrCrArGrCrArCrUrArUrCdTdT / antisense rGrArUrArGrUrGrCrUrGrGrCrCrGrCrCrGrGrCdCdG,82.2%
15,sense rGrGrArArCrGrArCrCrUrGrGrGrCrArGrCrCrGdTdT / antisense rCrGrGrCrUrGrCrCrCrArGrGrUrCrGrUrUrCrCdAdC,51.5%
16,sense rCrCrUrCrArCrGrGrUrGrCrUrGrCrGrGrUrGrGdTdT / antisense rCrCrArCrCrGrCrArGrCrArCrCrGrUrGrArGrGdTdG,70.1%
17,sense rArGrGrGrCrArUrGrGrUrGrUrGrCrArArGrCrCdTdT / antisense rGrGrCrUrUrGrCrArCrArCrCrArUrGrCrCrCrUdCdG,75.7%
18,sense rGrCrUrGrCrGrGrUrGrGrCrGrCrUrGrUrCrArGdTdT / antisense rCrUrGrArCrArGrCrGrCrCrArCrCrGrCrArGrCdAdC,80.5%
19,sense rCrArCrCrUrCrArCrGrGrUrGrCrUrGrCrGrGrUdTdT / antisense rArCrCrGrCrArGrCrArCrCrGrUrGrArGrGrUrGdCdA,56.3%

# Biological target: UFC1
# Assay: reporter assay of Huesken 2005
# Conditions: siRNA
row,Substance,normalised inhibition (eCFP-eYFP dual reporter)
1,sense rUrGrCrCrCrCrArGrArArArUrUrGrCrArGrUrUdTdT / antisense rArArCrUrGrCrArArUrUrUrCrUrGrGrGrGrCrAdGdT,44.9%
2,sense rArUrCrArCrArUrArUrCrCrUrArCrUrArCrUrGdTdT / antisense rCrArGrUrArGrUrArGrGrArUrArUrGrUrGrArUdAdG,69.2%
3,sense rArCrUrGrArArGrGrArGrGrArArUrArUrCrArGdTdT / antisense rCrUrGrArUrArUrUrCrCrUrCrCrUrUrCrArGrUdCdG,75.2%
4,sense rGrGrCrArArArArUrArUrGrCrCrUrGrArCrGrGdTdT / antisense rCrCrGrUrCrArGrGrCrArUrArUrUrUrUrGrCrCdAdC,99.9%
5,sense rCrUrGrGrArGrUrCrCrArArCrArArGrGrArArGdTdT / antisense rCrUrUrCrCrUrUrGrUrUrGrGrArCrUrCrCrArGdTdC,66.3%
6,sense rGrCrArGrUrUrCrCrUrGrArGrCrUrGrGrArUrGdTdT / antisense rCrArUrCrCrArGrCrUrCrArGrGrArArCrUrGrCdAdA,80.1%
7,sense rGrGrArUrGrGrArArArGrArCrArGrCrArArArGdTdT / antisense rCrUrUrUrGrCrUrGrUrCrUrUrUrCrCrArUrCrCdAdG,103%
8,sense rArGrUrUrGrUrGrGrGrUrGrCrArGrCrGrArCrUdTdT / antisense rArGrUrCrGrCrUrGrCrArCrCrCrArCrArArCrUdCdA,80.4%
9,sense rCrGrArGrUrUrUrGrArCrArUrUrCrCrUrArUrCdTdT / antisense rGrArUrArGrGrArArUrGrUrCrArArArCrUrCrGdAdT,95.7%
10,sense rArArArUrCrCrCrUrGrArUrCrUrGrArUrUrCrAdTdT / antisense rUrGrArArUrCrArGrArUrCrArGrGrGrArUrUrUdCdC,81%
11,sense rGrCrCrUrGrArCrGrGrArUrCrArUrUrUrCrArAdTdT / antisense rUrUrGrArArArUrGrArUrCrCrGrUrCrArGrGrCdAdT,117%
12,sense rArUrCrArGrUrCrCrCrUrUrArUrCrCrGrGrUrAdTdT / antisense rUrArCrCrGrGrArUrArArGrGrGrArCrUrGrArUdAdT,99.1%
13,sense rGrUrGrGrArGrArArCrArArCrArArGrArArUrGdTdT / antisense rCrArUrUrCrUrUrGrUrUrGrUrUrCrUrCrCrArCdAdT,68.9%
14,sense rGrCrGrArCrUrGrArArGrGrArGrGrArArUrArUdTdT / antisense rArUrArUrUrCrCrUrCrCrUrUrCrArGrUrCrGrCdTdG,107%
